The test system of data set [1] is tremorogenic and convulsive actions of nicotine. Description: Nicotine-induced tremor and seizure model. It counts as in vivo, mice. The following applies: for responders at 1 mg/kg: Mus musculus, po, read-out: Survival Rate; for Duration of Seizures / Latency to Seizure Onset: oral dose 1.0 mg/kg 60 min before nicotine 10 mg/kg s.c., mean ± SD, N = 10; for survival rate of the animals increased to: at low doses (0.1–5 mg/kg); for activity against tremorogenic and convulsive actions of nicotine versus reference drugs (in words): doses of 0.1–5 mg/kg. The text has this:
(§1) The anticonvulsant effects of the examined substances were studied in male white mice weighing 18–22 g, divided into the following groups: control (including the strychnine and nicotine groups), carbamazepine group, Convulex group, and experimental groups (one for each tested substance). Simple randomization (“heads or tails” coin toss) was used to assign animals to groups. Each group contained 10 animals. Healthy animals were included in the experiments after a 14-day quarantine period. No animals were excluded from the study. Convulsant agents were administered subcutaneously at doses of 10.0 mg/kg for nicotine (Sigma–Aldrich, Saint Louis, MO, USA) and 1.5 mg/kg for strychnine (Sigma–Aldrich, Saint Louis, MO, USA), 60 min after the oral administration of the test substances at doses ranging from 0.1 to 10 mg/kg. The onset time, duration of tremors and seizures, and survival rate of the animals were recorded. Carbamazepine (Darnitsa, Kiev, Ukraine) at doses of 5.0–10.0 mg/kg and Convulex (valproate) (Gerot Pharmazeutika GmbH, Vienna, Austria) at doses of 75.0–100.0 mg/kg (based on the therapeutic anticonvulsant dose) were used as reference drugs.
(§2) Data were presented as mean ± SD for different groups. Statistical analysis was performed using OriginPro 9.0 (MicroCal Software, Northampton, MA, USA), with p < 0.05 considered statistically significant.

On the set-up of data set [2]: method as in PMID 36677539. The following applies: per os; cited from earlier work.
For data set [3], the system named is strychnine-induced seizures. Briefly: Strychnine-induced seizure model. The following applies: for responders at 1 mg/kg: Mus musculus, read-out: Survival Rate; for responders at 1 mg/kg / Duration of Tremor and Seizures / Latency to Tremor and Seizure Onset: oral dose 1.0 mg/kg 60 min before strychnine 1.5 mg/kg s.c., N = 10; for Duration of Tremor and Seizures / Latency to Tremor and Seizure Onset: mean ± SD; for survival rate of strychnine-poisoned animals: dose not given. The data set is classed as in vivo, mice.
Text: as §1, §2

Each structure is given as a SMILES string. Entries after “also recorded” stand apart in the source; their conditions may differ.

In the case of `COc1cc2c(cc1OC)C(c1cccc(Cl)c1)NCC2` (stereo not shown) [Compound 11, 1-(3′-Chlorophenyl)-6,7-dimethoxy-1,2,3,4-tetrahydroisoquinoline], in data set [1], the responders at 1 mg/kg is 70%, the “Duration of Seizures” value is recorded as 8.3 ± 0.3 min and the “Latency to Seizure Onset” value turned out to be 2.2 ± 0.07 min. Moreover, in data set [2], the LD50 is reported as 232.4 (211.8 ± 251.1) mg/kg. In data set [3], the responders at 1 mg/kg is 70%; the “Duration of Tremor and Seizures” value amounted to 0.46 ± 0.5 min; the “Latency to Tremor and Seizure Onset” value is 15.5 ± 1.2 min.

Turning to `COc1cc2c(cc1OC)C(c1ccc([N+](=O)[O-])cc1)NCC2` (stereo not shown) [Compound 9, 1-(4′-Nitrophenyl)-6,7-dimethoxy-1,2,3,4-tetrahydroisoquinoline], in data set [1], the responders at 1 mg/kg turned out to be 90%, the “Duration of Seizures” value amounted to 16.7 ± 0.4 min and the “Latency to Seizure Onset” value was found to be 2.5 ± 0.03 min. The LD50 in data set [2] was 1898.8 (703.5 ± 2273.4) mg/kg. Besides, in data set [3], the responders at 1 mg/kg came out at 40%; the “Duration of Tremor and Seizures” value turned out to be 0.51 ± 0.5 min; the “Latency to Tremor and Seizure Onset” value was 13.5 ± 1.9 min.

As for `COc1cc2c(cc1OC)C(c1cc(OC)c(OC)cc1[N+](=O)[O-])NCC2` (stereo not shown) [Compound 26, 1-(4′,5′-Dimethoxy-2′-nitrophenyl)-6,7-dimethoxy-1,2,3,4-tetrahydroisoquinoline], in data set [1], the responders at 1 mg/kg amounted to 80%, the “Duration of Seizures” value amounted to 10.8 ± 0.4 min and the “Latency to Seizure Onset” value is 2.6 ± 0.03 min. The LD50 in data set [2] was 524.5 (501.3 ± 547.7) mg/kg. Moreover, in data set [3], the responders at 1 mg/kg amounted to 40%; the “Duration of Tremor and Seizures” value turned out to be 0.51 ± 0.8 min; the “Latency to Tremor and Seizure Onset” value was 16.7 ± 1.2 min.

In the case of `COc1ccc(C2NCCc3cc(OC)c(OC)cc32)cc1O` (stereo not shown) [Compound 20, 1-(3′-Hydroxy-4′-methoxyphenyl)-6,7-dimethoxy-1,2,3,4-tetrahydroisoquinoline], in data set [1], the responders at 1 mg/kg was determined as 70%, the “Duration of Seizures” value is recorded as 11.0 ± 0.7 min and the “Latency to Seizure Onset” value came out at 2.8 ± 0.07 min. Besides, the LD50 in data set [2] is reported as 964.8 (916.5 ± 998.2) mg/kg. Also, in data set [3], the responders at 1 mg/kg was 90%; the “survival rate of strychnine-poisoned animals” value is around 90%; the “Duration of Tremor and Seizures” value is reported as 0.63 ± 0.7 min; the “Latency to Tremor and Seizure Onset” value came to 18.2 ± 1.4 min. In data set [3] (doses of 1–10 mg/kg), the “effect on the duration of the seizures” value is recorded as “minimal effect” and the “increase of animal survival” value came to 90%. For the same compound, in data set [3] (doses of 1–10 mg/kg, versus control), the “extension of the latency period for seizures” value is reported as 27–86%. Also, the “activity against strychnine-induced seizures (in words)” value in data set [3] (ranking within the series) is recorded as “most active; also recorded: highest activity”.

With `COc1ccc(C2NCCc3cc(OC)c(OC)cc32)cc1` (stereo not shown) [Compound 5, 1-(4′-Methoxyphenyl)-6,7-dimethoxy-1,2,3,4-tetrahydroisoquinoline], in data set [1], the responders at 1 mg/kg came to 80%, the “Duration of Seizures” value came to 10.3 ± 0.6 min and the “Latency to Seizure Onset” value amounted to 2.1 ± 0.09 min. In addition, the LD50 in data set [2] is reported as 1040.3 (986.0 ± 1079.8) mg/kg. Also, in data set [3], the responders at 1 mg/kg was found to be 60%; the “Duration of Tremor and Seizures” value was 0.54 ± 0.7 min; the “Latency to Tremor and Seizure Onset” value was 16.5 ± 1.8 min.

Take `COc1cc2c(cc1OC)C(c1cc3c(cc1Cl)OCO3)NCC2` (stereo not shown) [Compound 31, 1-(4′,5′-Methylenedioxy-2′-chlorophenyl)-6,7-dimethoxy-1,2,3,4-tetrahydroisoquinoline]: in data set [1], the responders at 1 mg/kg turned out to be 90%; the “survival rate of the animals increased to” value is listed as 90–100%; the “activity against tremorogenic and convulsive actions of nicotine versus reference drugs (in words)” value was “comparable activity to the reference drugs”; the “Duration of Seizures” value is given as 10.7 ± 0.9 min. Further, in data set [1], the “Latency to Seizure Onset” value was determined as 2.3 ± 0.08 min. The LD50 in data set [2] is reported as 520.8 (491.9 ± 545.4) mg/kg. Also, in data set [3], the responders at 1 mg/kg is 30%; the “Duration of Tremor and Seizures” value worked out at 0.59 ± 0.5 min; the “Latency to Tremor and Seizure Onset” value was determined as 13.6 ± 1.9 min.

With `COc1cc2c(cc1OC)C(c1ccc(O)cc1)NCC2` (stereo not shown) [Compound 4, 1-(4′-Hydroxyphenyl)-6,7-dimethoxy-1,2,3,4-tetrahydroisoquinoline], in data set [1], the responders at 1 mg/kg was 60%, the “Duration of Seizures” value worked out at 10.5 ± 0.8 min and the “Latency to Seizure Onset” value is 1.8 ± 0.05 min. Further, in data set [2], the LD50 is 924.2 (893.9 ± 953.9) mg/kg. In data set [3], the responders at 1 mg/kg was 70%; the “Duration of Tremor and Seizures” value is 0.57 ± 0.7 min; the “Latency to Tremor and Seizure Onset” value is given as 14.2 ± 1.8 min.

Consider `COc1cc2c(cc1OC)C(c1ccc(N(C)C)cc1)NCC2` (stereo not shown) [Compound 16, 1-(4′-Dimethylaminophenyl)-6,7-dimethoxy-1,2,3,4-tetrahydroisoquinoline], for which, in data set [1], the responders at 1 mg/kg was determined as 90%; the “survival rate of the animals increased to” value is reported as 90–100%; the “activity against tremorogenic and convulsive actions of nicotine versus reference drugs (in words)” value is “comparable activity to the reference drugs”; the “Duration of Seizures” value is listed as 8.5 ± 0.7 min. Besides, the “Latency to Seizure Onset” value in data set [1] is 2.7 ± 0.08 min. Further, the LD50 in data set [2] was 498.3 (471.6 ± 524.6) mg/kg. In data set [3], the responders at 1 mg/kg was 50%; the “Duration of Tremor and Seizures” value worked out at 0.31 ± 0.6 min; the “Latency to Tremor and Seizure Onset” value is 13.1 ± 1.5 min.

As to `COc1cc(Br)c(C2NCCc3cc(OC)c(OC)cc32)cc1O` (stereo not shown) [Compound 24, 1-(2′-Bromo-4′-methoxy-5′-hydroxyphenyl)-6,7-dimethoxy-1,2,3,4-tetrahydroisoquinoline], in data set [1], the responders at 1 mg/kg came out at 70%, the “Duration of Seizures” value is on record as 7.3 ± 0.3 min and the “Latency to Seizure Onset” value is listed as 2.1 ± 0.09 min. The “survival of poisoned animals compared to carbamazepine and valproate (in words)” value in data set [1] (mouse, in vivo) was “did not improve the survival”. In data set [2], the LD50 is listed as 546.9 (516.3 ± 571.6) mg/kg. Further, in data set [3], the responders at 1 mg/kg came to 30%; the “Duration of Tremor and Seizures” value was determined as 0.32 ± 0.4 min; the “Latency to Tremor and Seizure Onset” value is listed as 10.2 ± 1.2 min.

Take `COc1cc2c(cc1OC)C(c1cc3c(cc1Br)OCO3)NCC2` (stereo not shown) [Compound 30, 1-(2′-Bromo-4′,5′-methylenedioxyphenyl)-6,7-dimethoxy-1,2,3,4-tetrahydroisoquinoline]: in data set [1], the responders at 1 mg/kg amounted to 90%; the “survival rate of the animals increased to” value is 90–100%; the “activity against tremorogenic and convulsive actions of nicotine versus reference drugs (in words)” value is given as “comparable activity to the reference drugs”; the “Duration of Seizures” value worked out at 7.0 ± 0.2 min. Moreover, the “Latency to Seizure Onset” value in data set [1] is given as 2.5 ± 0.09 min. Also, the LD50 in data set [2] is on record as 711.7 (604.3 ± 792.9) mg/kg. For the same compound, in data set [3], the responders at 1 mg/kg stood at 30%; the “Duration of Tremor and Seizures” value is 0.41 ± 0.4 min; the “Latency to Tremor and Seizure Onset” value amounted to 11.2 ± 1.2 min.

With `COc1cc2c(cc1OC)C(c1cccc(OC)c1[N+](=O)[O-])NCC2` (stereo not shown) [Compound 23, 1-(3′-Methoxy-2′-nitrophenyl)-6,7-dimethoxy-1,2,3,4-tetrahydroisoquinoline], in data set [1], the responders at 1 mg/kg stood at 20%, the “Duration of Seizures” value is reported as 5.4 ± 0.9 min and the “Latency to Seizure Onset” value worked out at 1.5 ± 0.08 min. In addition, in data set [2], the LD50 was 315.4 (281.0 ± 344.2) mg/kg. Also, in data set [3], the responders at 1 mg/kg turned out to be 30%; the “Duration of Tremor and Seizures” value is reported as 0.60 ± 0.4 min; the “Latency to Tremor and Seizure Onset” value was found to be 14.6 ± 1.4 min.

Regarding `COc1cc2c(cc1OC)C(c1ccccc1O)NCC2` (stereo not shown) [Compound 3, 1-(2′-Hydroxyphenyl)-6,7-dimethoxy-1,2,3,4-tetrahydroisoquinoline], in data set [1], the responders at 1 mg/kg was found to be 90%; the “survival rate of the animals increased to” value is listed as 90–100%; the “activity against tremorogenic and convulsive actions of nicotine versus reference drugs (in words)” value was “comparable activity to the reference drugs”; the “Duration of Seizures” value was found to be 9.0 ± 0.4 min. Further, in data set [1], the “Latency to Seizure Onset” value was 2.6 ± 0.08 min. In addition, the LD50 in data set [2] is listed as 365.3 (326.1 ± 394.5) mg/kg. Further, in data set [3], the responders at 1 mg/kg was 60%; the “Duration of Tremor and Seizures” value is given as 0.29 ± 0.6 min; the “Latency to Tremor and Seizure Onset” value was 14.5 ± 1.7 min.

Turning to `COc1cc2c(cc1OC)C(c1ccccc1Br)NCC2` (stereo not shown) [Compound 13, 1-(2′-Bromophenyl)-6,7-dimethoxy-1,2,3,4-tetrahydroisoquinoline], in data set [1], the responders at 1 mg/kg was determined as 50%, the “Duration of Seizures” value stood at 5.0 ± 0.7 min and the “Latency to Seizure Onset” value is 2.2 ± 0.03 min. For the same compound, the LD50 in data set [2] is reported as 315.8 (281.2 ± 345.2) mg/kg. For the same compound, in data set [3], the responders at 1 mg/kg was 40%; the “survival rate of strychnine-poisoned animals” value is reported as “no more than 40%”; the “Duration of Tremor and Seizures” value amounted to 0.31 ± 0.7 min; the “Latency to Tremor and Seizure Onset” value is on record as 10.5 ± 1.3 min.

Source of the values: article PMC12472494, “Anticonvulsant Potential of 1-Aryl-6,7-dimethoxy-1,2,3,4-tetrahydroisoquinolines: Insights from Strychnine and Nicotine Models in In Vivo and In Silico Studies” (Pharmaceuticals, 2025).
